Source: paper PMC4501687, “Design of a Selective Substrate and Activity Based Probe for Human Neutrophil Serine Protease 4” (PLoS ONE, 2015)

Assays:
NSP4 [1] = target: T1, NSP4 (Homo sapiens, UniProt Q6UWY2); assay: Inhibition rate constant (kobs/I), pseudo-first order, NSP4; type: biochemical
T1 construct: made in house
T1 sequence (Q6UWY2 32-283): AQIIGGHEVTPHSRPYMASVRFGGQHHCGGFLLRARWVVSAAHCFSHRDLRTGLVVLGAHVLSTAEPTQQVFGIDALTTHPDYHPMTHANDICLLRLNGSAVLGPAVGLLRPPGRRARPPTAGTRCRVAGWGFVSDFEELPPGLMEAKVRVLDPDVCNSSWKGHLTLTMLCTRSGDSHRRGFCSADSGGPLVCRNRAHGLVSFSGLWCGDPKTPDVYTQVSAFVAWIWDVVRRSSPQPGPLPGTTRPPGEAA
Description: (§1) The active concentration of each NSP was determined by PK401 titration in 50 mM Hepes, 0.1 M NaCl, 0.1%TRITON-X100, pH 7.45 assay buffer on 96 wells Corning plates. Rfu/s values were measured for minimum 20 minutes. The excitation wavelength was 355 nm, and the emission wavelength was 460 nm, with a cutoff of 455 nm. Under pseudo-first order conditions, a fixed amount of NSP4 (2.8 nM active enzyme), PR3, NE, or CatG (100 nM active enzyme) was mixed with PK401 at different concentration ranges starting from at least 2-fold excess over NSP4 (6.6–20nM) and 7-fold excess over NE, CatG and PR3 (0.7–50μM). […] Product formation (P) proceeded at an initial velocity (V) and was inhibited over time (t) at a rate of (k a): P = V/ka*(1-e^-ka^*t)+C, where k o is defined as k obs(app) −the apparent rate of inhibition in the presence of substrate. k obs was determined separately for each probe concentration using non-linear regression analysis in GraphPadPrism software. The obtained values were plotted against probe concentration giving k obs(app)/I (apparent second order rate constant). kobs/I (absolute value of the second order rate constant) was then calculated from kobs/I = ka/I *(1+[S]/Km). […]

CatG [2] = target: T2, CatG (Homo sapiens, UniProt P08311); assay: Inhibition rate constant (kobs/I), pseudo-first order, CatG; type: biochemical; settings: selectivity NSP4 over CatG
T2 construct: purchased Biocentrum, Krakow, Poland
T2 sequence (P08311 21-255): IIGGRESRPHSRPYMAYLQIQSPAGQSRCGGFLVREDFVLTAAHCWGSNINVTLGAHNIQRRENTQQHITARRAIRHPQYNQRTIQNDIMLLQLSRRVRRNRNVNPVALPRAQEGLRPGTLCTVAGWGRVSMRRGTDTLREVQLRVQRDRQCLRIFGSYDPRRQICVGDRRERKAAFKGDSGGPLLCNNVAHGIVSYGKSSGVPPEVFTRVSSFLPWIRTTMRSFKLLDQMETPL
Description: as §1

NSP4 [3] = target: T1, NSP4; assay: SDS-PAGE / streptavidin blot labeling of purified NSP4 by probe; type: binding; settings: 100 nM NSP4, 20 min 37°C; SDS-PAGE, nitrocellulose transfer, fluorescent streptavidin; probe tested 1–2000 nM
Description: 100nM of NSP4 was incubated with competing inhibitor—Ac-IVPR-CMK for 30 minutes at 37°C and then treated with different concentrations of probe—PK401 (2000nM and 1000nM) for 20 minutes at 37°C. Separately, 100nM of NSP4 was incubated with five different concentrations of probe- 2000nM, 1000nM, 100nM, 10nM, and 1 nM for 20 minutes in 37°C. As a control 100nM PK401 was incubated with assay buffer.
(§2) Samples were denatured and run in 4–12% SDS PAGE following transfer to nitrocellulose membrane. The membrane was blocked with 1.5% BSA in TBST overnight at 4°C and treated with IRDye800CW Streptavidin (dilution 1:10000 with 1.5% BSA in TBST) for 45 minutes. Then enzyme was visualized using a Li-cor fluorescence imager and Odyssey Molecular Modeling Software.
(§3) SDS-page and Western Blot […]
A standard SDS broad spectrum marker (Biorad) was used (Fig. 4A, lane 1). […]
(§4) minutes in 37° C (Fig. 4, lanes 4, 5, 6, 7, 8). […] Then enzyme was visualized using a Li-cor fluorescence imager and Odyssey Molecular Modeling Software. […]
(§5) The membrane was blocked with 1.5% BSA in TBST overnight at 4° C and treated with IRDye800CW Streptavidin (dilution 1:10000 with 1,5% BSA in TBST) for 45 minutes. Then PK401 was visualized using a Li-cor fluorescence imager and Odyssey Molecular Modeling Software.

NE = target: T3, NE (Homo sapiens, UniProt P08246); assay: SDS-PAGE / streptavidin blot labeling of NE by probe; type: binding; settings: 100 nM active enzyme, 100 nM PK401; streptavidin blot (Fig 4B)
T3 construct: purchased Biocentrum, Krakow, Poland
T3 sequence (P08246 30-267): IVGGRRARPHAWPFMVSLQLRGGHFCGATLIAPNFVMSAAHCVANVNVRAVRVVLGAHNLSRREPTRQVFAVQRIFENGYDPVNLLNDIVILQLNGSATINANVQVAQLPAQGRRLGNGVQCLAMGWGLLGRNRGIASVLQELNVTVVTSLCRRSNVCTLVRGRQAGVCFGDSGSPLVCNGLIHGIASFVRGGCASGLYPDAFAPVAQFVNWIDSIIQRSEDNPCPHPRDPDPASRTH
Description: as §2
(§6) The same methodology was used to visualize potential cross-reactivity of NSP’s with PK401. 100nM of each NSP was incubated with buffer or 100nM PK401, followed by SDS-page and transfer to nitrocellulose membrane. For more details see S1 Text.
as §3
(§7) A standard SDS broad spectrum marker (Biorad) was used (Fig. 4A, lane 1).
(§8) Two Eppendorf tubes with 100nM of NSP4 were incubated with Ac-IVPR-CMK for 30 minutes at 37°C and then treated with PK401 at 2000nM and 1000nM for an additional 20 minutes at 37° C (Fig. 4, lanes 2 and 3). Separately, 100nM enzyme […]
as §4, §5

CatG [4] = target: T2, CatG; assay: SDS-PAGE / streptavidin blot labeling of CatG by probe; type: binding; settings: 100 nM active enzyme, 100 nM PK401; streptavidin blot (Fig 4B)
Description: as §2, §6, §3, §7, §8, §4, §5

CatG [5] = target: T2, CatG; assay: Fluorogenic substrate hydrolysis kinetics with CatG; type: biochemical; settings: Table 3; assay substrate for CatG; Km above 100 μM, the concentration used in the assay; read-out: Km of the substrate used for analysis
Description: Kinetic parameters of selected substrates were determined in 50 mM Hepes, 0.1 M NaCl, 0.1%TRITON-X100, pH 7.45 assay buffer on 96 wells Corning plates. Measurements were performed for a minimum of 20 minutes. The excitation wavelength was 355 nm, and the emission wavelength was 460 nm, with a cutoff of 455 nm. Human NE and CatG were purchased from Biocentrum, Krakow, Poland and PR3 from Athens Research Technology, Athens, Georgia, USA. Recombinant human NSP4 was expressed and purified as previously described.
In addition to NSP4, neutrophils contain three other structurally-related serine proteases NE, PR3 and CatG [1] that are also stored in azurophilic granules. To estimate the degree of eventual cross reactivity of the optimal substrate with these three serine proteases, we measured kinetic parameters for each enzyme on PK421. […] In the case of CatG we were unable to saturate the enzyme and therefore could not calculate the individual values of kcat and Km.

Row | Substance | kobs/I (second order rate constant of inhibition) (NSP4 [1]; NSP4 2.8 nM active enzyme, probe 6.6–20 nM, substrate Ac-hCha-Phe(guan)-Pro-Arg-ACC above Km, 37°C, Hepes buffer pH 7.45, corrected by 1+[S]/Km) [M⁻¹ s⁻¹] | Fold higher kobs/I than PK401b (NSP4 [1]; NSP4, diastereoisomers compared) [times] | Inhibition of CatG relative to NSP4 (kobs/I) (CatG [2]) | Probe concentration giving robust labeling of NSP4 (NSP4 [3]) [nM] | Labeling of NE by probe (NE) | Labeling of CatG by probe (CatG [4]) | Km (CatG [5]) [µM]
1 | Biot-Ahx-hCha-Phe(guan)-Oic-Arg^P(OPh)2 [PK401] | 3.8e+06 | 40 | three orders of magnitude slower | 10 | only trace amounts of labeling | only trace amounts of labeling | 
2 | Suc-Ala-Ala-Pro-Phe-AMC [assay substrate for CatG] |  |  |  |  |  |  | > 100
